According to patent publication US20140213538A1, “LYSOPHOSPHATIDIC ACID RECEPTOR ANTAGONISTS” (InterMune, Inc., priority 2013, published 2014):

What was measured:
LPA/S1P GPCR of interest = molecular target: T1, LPA/S1P GPCR of interest (Homo sapiens, UniProt Q92633); experiment: Beta-Arrestin based assay (PathHunter); assay type: cell-based
T1 construct: host or cells: CHO
Procedure, shortened: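 EA Parental CHO cells (DiscoverX) were transfected with FuGENE (Roche) using CMV promoter-driven DNA constructs encoding the LPA/S1P GPCR of interest fused to a ProLink tag. Beta-arrestin recruitment in agonist mode was assessed 24-48 hrs later with PathHunter kits. Tests ran in quadruplicate in white 384 well plates, and end point luminescence was fit to a 4 parameter logistic function.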

LPA1 = LPA1 (Homo sapiens, UniProt Q92633); experiment: LPA1 Migration Assay (Oris); assay type: cell-based; set-up: host or cells: primary fibroblasts (lung, dermal), HFL-1, 3T3 and CHO cells expressing LPA1R; conditions: read-out: Cell Migration EC50
Text: LPA1 Migration Assay Migration of primary fibroblasts (including lung, dermal), HFL-1, 3T3 and CHO cells expressing LPA1R were monitored using the Oris™ assay (Platypus Technologies, Madison, Wis.). These cells were dye (Cell Tracker Green™) loaded and serum starved for 12-24 hrs. In response to chemoattractants such as LPA and serum, the cells migrated inward in to the exclusion (detection) zone. After fixing, fluorescent cells in the detection zone were counted using a high content reader. The ability of LPA1 antagonists to inhibit cell migration is quantified by plotting cell number vs. compound concentration and curve fitting the resulting dose-response curve to a 4 parameter logistic function.

Chain of LPA1 (Q92633 whole entry): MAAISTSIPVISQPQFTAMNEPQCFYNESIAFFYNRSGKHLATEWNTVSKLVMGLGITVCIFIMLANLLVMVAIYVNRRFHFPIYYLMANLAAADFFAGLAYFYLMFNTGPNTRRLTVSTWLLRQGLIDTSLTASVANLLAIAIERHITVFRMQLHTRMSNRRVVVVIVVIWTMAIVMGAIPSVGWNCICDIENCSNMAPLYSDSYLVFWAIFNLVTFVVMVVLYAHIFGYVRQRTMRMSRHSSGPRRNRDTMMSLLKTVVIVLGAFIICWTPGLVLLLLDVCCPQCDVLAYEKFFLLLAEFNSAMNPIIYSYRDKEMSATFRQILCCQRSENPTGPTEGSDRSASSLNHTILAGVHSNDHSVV
T1 sequence (Q92633 whole entry): as above

| Structure (SMILES) | EC50 (LPA/S1P GPCR of interest) [nM] | EC50 (LPA1) [nM] |
| --- | --- | --- |
| C[C@@H](OC(=O)Nc1c(-c2cc3sc(-c4ccc(CC(=O)O)s4)cc3s2)nnn1C)c1ccccc1 [IT179] | 50 to 500 | > 500 |
| C[C@@H](OC(=O)Nc1c(-c2cc3sc(-c4ccc(CC(=O)O)cc4F)cc3s2)cnn1C)c1ccccc1 [IT134] | 50 to 500 | > 500 |
| Cc1nsc(-c2cc3sc(-c4ccc(CC(=O)O)cc4)cc3s2)c1NC(=O)O[C@H](C)c1ccccc1 [IT133] | 50 to 500 | > 500 |
| C[C@@H](OC(=O)Nc1c(-c2ccc(-c3ccc(OC(C)(C)C(=O)O)cc3)cc2)cnn1C)c1ccccc1 [IT510] | 50 to 500 | > 500 |
| C[C@@H](OC(=O)Nc1c(-c2cc3sc(-c4ccc(CC(=O)O)cc4Cl)cc3s2)cnn1C)c1ccccc1 [IT140] | 50 to 500 | > 500 |
| Cc1nnn(-c2ccc(-c3cc(F)c(OC4(C(=O)O)CC4)c(F)c3)cc2)c1NC(=O)O[C@H](C)c1ccccc1 [IT313] | 50 to 500 | > 500 |
| C[C@@H](OC(=O)Nc1c(-c2ccc(C#CC(=O)N[C@@H](C(=O)O)c3ccccc3)cc2)cnn1C)c1ccccc1 [IT401] | > 500 | 50 to 500 |
| C[C@@H](OC(=O)Nc1cccnc1C#Cc1cc2sc(C3(C(=O)O)CC3)cc2s1)c1ccccc1 [IT115] | 50 to 500 | > 500 |
| Cc1noc(-c2ccc(-c3ccc(S(N)(=O)=O)cc3)cc2)c1NC(=O)O[C@H](C)c1ccccc1 [IT129] | 50 to 500 | > 500 |
| Cc1noc(-c2ccc(-c3ccc(Oc4ncn(C)c4C(=O)O)cc3)cc2)c1NC(=O)O[C@H](C)c1ccccc1 [IT486] | 50 to 500 | > 500 |
| C[C@@H](OC(=O)Nc1c(-c2ccc(-c3ccc(Oc4cc(F)ccc4C(=O)O)cc3)cc2)nnn1C)c1ccccc1 [IT468] | < 50 | < 50 |
| Cc1cc(CC(=O)O)ccc1-c1cc2sc(-c3nnn(C)c3NC(=O)O[C@H](C)c3ccccc3)cc2s1 [IT171] | 50 to 500 | > 500 |
| Cc1noc(-c2ccc(-c3ccc(Oc4nc5ccccc5cc4C(=O)O)cc3)cc2)c1NC(=O)O[C@H](C)c1ccccc1 [IT482] | < 50 | 50 to 500 |

Results, then the compound that gave them:

| EC50 (LPA/S1P GPCR of interest) [nM] | EC50 (LPA1) [nM] | Structure (SMILES) |
| --- | --- | --- |
| < 50 | 50 to 500 | Cc1nsc(-c2cc(F)c(-c3nc4sc(C5(C(=O)O)CC5)cc4s3)cc2F)c1NC(=O)O[C@H](C)c1ccccc1 [IT201] |
| < 50 | 50 to 500 | Cc1noc(-c2ccc(-c3ccc(Oc4ccc(F)cc4C(=O)O)cc3)cc2)c1NC(=O)O[C@H](C)c1ccccc1 [IT459] |
| < 50 | 50 to 500 | C[C@@H](OC(=O)Nc1c(-c2ccc(-c3ccc(OC4(C(=O)O)CC4)cc3)cc2)cnn1C)c1ccccc1 [IT511] |
| < 50 | > 500 | Cc1nsc(-c2ccc(-c3cc(F)c(Oc4ccncc4C(=O)O)c(F)c3)cc2)c1NC(=O)O[C@H](C)c1ccccc1 [IT439] |
| < 50 | 50 to 500 | Cc1noc(-c2ccc(-c3ccc4c(c3)CC(C)(C(=O)O)O4)cc2)c1NC(=O)O[C@H](C)c1ccccc1 (stereo partly drawn) [IT498] |
| < 50 | 50 to 500 | C[C@@H](OC(=O)Nc1c(-c2cc3sc(-c4ccc(C5(C(=O)O)CC5)c(F)c4)cc3s2)cnn1C)c1ccccc1 [IT295] |
| < 50 | > 500 | C[C@@H](OC(=O)Nc1c(-c2ccc(-c3cc(F)c(OC4(C(=O)O)CC4)c(F)c3)cc2)cnn1C)c1ccccc1 [IT314] |
| < 50 | 50 to 500 | C[C@@H](OC(=O)Nc1c(-c2cc(F)c(-c3nc4sc(C5(C(=O)O)CC5)cc4s3)cc2F)cnn1C)c1ccccc1 [IT279] |
| < 50 | 50 to 500 | C[C@@H](OC(=O)Nc1c(-c2cc(F)c(-c3ccc(C4(C(=O)O)CC4)cc3)cc2F)oc2ncccc12)c1ccccc1 [IT096] |
| < 50 | 50 to 500 | C[C@@H](OC(=O)Nc1c(-c2cc3sc(-c4ccc(C5(C(=O)O)CC5)c(Cl)c4)cc3s2)nnn1C)c1ccccc1 [IT266] |
| < 50 | 50 to 500 | Cc1noc(-c2ccc(-c3ccc(Oc4ncncc4C(=O)O)cc3)cc2)c1NC(=O)O[C@H](C)c1ccccc1 [IT230] |
